The record followed here is patent US8987256B2, “Oxo-heterocyclic substituted carboxylic acid derivatives and the use thereof” (Bayer Intellectual Property GmbH, priority 2008, dated 2015).

Test [1] concerns the target T1, soluble guanylate cyclase (sGC) (Rattus norvegicus, UniProt P20595).
T1 construct: made in house; host or cells: baculovirus/Sf9 insect cells
T1 sequence (P20595 1-619): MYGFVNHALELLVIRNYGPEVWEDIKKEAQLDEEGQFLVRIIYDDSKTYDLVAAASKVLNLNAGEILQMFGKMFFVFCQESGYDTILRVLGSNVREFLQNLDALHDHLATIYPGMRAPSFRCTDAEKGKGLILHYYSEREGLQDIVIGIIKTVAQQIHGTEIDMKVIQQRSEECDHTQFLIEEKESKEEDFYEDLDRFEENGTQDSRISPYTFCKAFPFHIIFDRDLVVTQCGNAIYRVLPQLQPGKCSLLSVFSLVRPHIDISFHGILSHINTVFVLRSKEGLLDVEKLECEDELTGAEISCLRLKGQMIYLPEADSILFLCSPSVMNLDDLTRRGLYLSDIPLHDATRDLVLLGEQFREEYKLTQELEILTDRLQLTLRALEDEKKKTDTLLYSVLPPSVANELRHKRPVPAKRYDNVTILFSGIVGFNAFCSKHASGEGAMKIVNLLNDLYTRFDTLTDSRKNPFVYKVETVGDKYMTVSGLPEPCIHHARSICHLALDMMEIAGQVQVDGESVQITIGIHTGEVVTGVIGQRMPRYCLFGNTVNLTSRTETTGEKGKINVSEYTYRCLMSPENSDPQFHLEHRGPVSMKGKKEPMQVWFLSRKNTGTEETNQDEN
T1 sequence (P19686 1-690 partner): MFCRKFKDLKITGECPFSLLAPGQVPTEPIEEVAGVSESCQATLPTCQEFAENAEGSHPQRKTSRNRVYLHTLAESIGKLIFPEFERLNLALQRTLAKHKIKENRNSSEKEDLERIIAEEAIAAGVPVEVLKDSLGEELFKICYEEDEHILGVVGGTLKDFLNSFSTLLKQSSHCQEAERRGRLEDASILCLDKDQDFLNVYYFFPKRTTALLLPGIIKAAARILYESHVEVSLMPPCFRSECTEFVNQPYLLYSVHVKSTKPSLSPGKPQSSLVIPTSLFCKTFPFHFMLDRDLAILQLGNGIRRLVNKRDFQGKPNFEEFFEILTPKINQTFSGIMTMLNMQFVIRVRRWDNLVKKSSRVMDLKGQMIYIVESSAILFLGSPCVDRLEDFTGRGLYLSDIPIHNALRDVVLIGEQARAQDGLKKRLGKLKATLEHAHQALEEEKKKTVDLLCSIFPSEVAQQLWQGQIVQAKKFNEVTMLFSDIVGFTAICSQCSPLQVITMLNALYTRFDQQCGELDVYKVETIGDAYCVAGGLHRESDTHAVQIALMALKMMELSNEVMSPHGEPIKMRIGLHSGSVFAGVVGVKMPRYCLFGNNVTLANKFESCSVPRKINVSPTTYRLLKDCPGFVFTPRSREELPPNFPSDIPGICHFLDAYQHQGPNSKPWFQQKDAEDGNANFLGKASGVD
The experiment in a line: Activating action at the sGC enzyme in vitro (PPi detection, luciferase). The class given is biochemical. The note with it: for EC50: read-out: EC50 (concentration at 50% of maximum efficacy), activating action at the sGC enzyme. In outline:
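Rat sGC (0–10 nM) preincubated 10 min at room temperature with compound in TEA buffer, pH 7.5; reaction started with GTP (1.25 mM solution). PPi formed read continuously by luciferase luminescence; stimulation expressed relative to unstimulated enzyme. Heme-free enzyme tested after 30 min with 25 μM ODQ.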

A further test relates to saphenous artery rings. Put plainly: Vasorelaxant effect in vitro (phenylephrine-contracted artery rings). Also on record: species or system Rabbits. To be noted: concentration reducing phenylephrine-induced contraction by 50%. The protocol: Rabbits are anesthetized and sacrificed by intravenous injection of thiopental sodium (about 50 mg/kg) and exsanguinated. The saphenous artery is removed and divided into rings 3 mm wide. The rings are mounted singly on in each case a pair of triangular hooks open at the end and made of 0.3 mm-thick special wire (Remanium®). Each ring is placed under an initial tension in 5 ml organ baths with Krebs-Henseleit solution which is at 37° C., is gassed with carbogen and has the following composition: NaCl 119 mM; KCl 4.8 mM; CaCl2×2H2O 1 mM; MgSO4×7H2O 1.4 mM; KH2PO4 1.2 mM; NaHCO3 25 mM; glucose 10 mM; bovine serum albumin 0.001%. The force of contraction is detected with Statham UC2 cells, amplified and digitized via A/D converters (DAS-1802 HC, Keithley Instruments, Munich) and recorded in parallel on chart recorders. Contractions are induced by addition of phenylephrine.
After several (generally 4) control cycles, the substance to be investigated is added in each further run in increasing dosage, and the level of the contraction achieved under the influence of the test substance is compared with the level of the contraction reached in the last preceding run. The concentration necessary to reduce the contraction reached in the preceding control by 50% is calculated from this (IC50). The standard application volume is 5 μl. The proportion of DMSO in the bath solution corresponds to 0.1%.

The target of test [2] is T2, recombinant guanylate cyclase reporter cell line (Rattus norvegicus, UniProt P20595).
T2 construct: expressed in transfected cells; host or cells: CHO reporter cell line
T2 sequence (P20595 1-619): T1 sequence (P20595 1-619)
T2 sequence (P19686 1-690 partner): T1 sequence (P19686 1-690 partner)
Put plainly: sGC-activating activity in the CHO reporter cell in vitro. It counts as cell-based. The procedure:
The cellular action of the compounds according to the invention is determined at a recombinant guanylate cyclase reporter cell line, as described in F. Wunder et al., Anal. Biochem. 339, 104-112 (2005).

For orientation: IC50 means the concentration at which inhibition is half-maximal. Read a low IC50 as greater potency.

With `CC(C(C(=O)Nc1cccc(CC2(C(=O)O)CC2)c1)c1ccc(CN2N=C(c3ccccc3)OCC2=O)cc1)C(F)(F)F` (single isomer, unassigned) [Example 166, 1-{3-[(4,4,4-trifluoro-3-methyl-2-{4-[(5-oxo-2-phenyl-5,6-dihydro-4H-1,3,4-oxadiazin-4-yl)methyl]phenyl}-butanoyl)amino]benzyl}cyclopropanecarboxylic acid], in test [1], the “MEC (minimum effective concentration), activating action at the sGC enzyme” value (“MEC … at the sGC enzyme” for short) stood at 0.4 nM and the EC50 is 2.4 nM. This compound also yielded an IC50 in the test with saphenous artery rings of 4.9 nM. Also, the “MEC (minimum effective concentration), sGC-activating activity in the CHO reporter cell” value (from here on “MEC … in the CHO reporter cell”) in test [2] amounted to 0.3 nM.

Take `CC(C(C(=O)Nc1cccc(CCC(=O)O)c1)c1ccc(CN2N=C(c3ccccc3)OCC2=O)cc1)C(F)(F)F` (single isomer, unassigned) [Example 192, 3-{3-[(4,4,4-Trifluoro-3-methyl-2-{4-[(5-oxo-2-phenyl-5,6-dihydro-4H-1,3,4-oxadiazin-4-yl)methyl]phenyl}butanoyl)amino]phenyl}propanoic acid]: in test [1], the “MEC … at the sGC enzyme” value came to 2.5 nM and the EC50 turned out to be 30 nM. For the same compound, in the test on saphenous artery rings (Oryctolagus cuniculus), the midpoint of inhibition, the IC50, lay at 356 nM. The “MEC … in the CHO reporter cell” value in test [2] is reported as 3 nM.

As to `O=C(Nc1cc(F)cc(CC2(C(=O)O)CC2)c1)C(c1ccc(CN2N=C(c3ccccc3)OCC2=O)cc1)C1CCCC1` (single isomer, unassigned) [Example 237, 1-{3-[(Cyclopentyl{4-[(5-oxo-2-phenyl-5,6-dihydro-4H-1,3,4-oxadiazin-4-yl)methyl]phenyl}acetyl)amino]-5-fluorobenzyl}cyclopropanecarboxylic acid], in test [1], the “MEC … at the sGC enzyme” value amounted to 0.9 nM and the EC50 came out at 21 nM. This compound also registered an IC50 in the test with saphenous artery rings (Oryctolagus cuniculus) of 158 nM. Also, the “MEC … in the CHO reporter cell” value in test [2] is given as 1 nM.

Regarding `O=C(Nc1cccc(CC2(C(=O)O)CC2)c1)C(c1ccc(Cn2nc(-c3ccccc3)ccc2=O)cc1)C1CCCC1` (centres unmarked) [Example 156, 1-{3-[(cyclopentyl{4-[(6-oxo-3-phenylpyridazin-1(6H)-yl)methyl]phenyl}acetyl)amino]benzyl}-cyclopropanecarboxylic acid], in test [1], the “MEC … at the sGC enzyme” value is 0.2 nM and the EC50 was determined as 5.4 nM. Also, the midpoint of inhibition in the test on saphenous artery rings (Oryctolagus cuniculus), the IC50, lay at 45 nM. Also, the “MEC … in the CHO reporter cell” value in test [2] came to 3 nM.

Turning to `CC(C(C(=O)Nc1cc(CC2(C(=O)O)CC2)ccc1F)c1ccc(CN2N=C(c3ccccc3)OCC2=O)cc1)C(F)(F)F` (centres unmarked) [Example 186, 1-{4-fluoro-3-[(4,4,4-trifluoro-3-methyl-2-{4-[(5-oxo-2-phenyl-5,6-dihydro-4H-1,3,4-oxadiazin-4-yl)methyl]phenyl}butanoyl)amino]benzyl}-cyclopropanecarboxylic acid], in test [1], the “MEC … at the sGC enzyme” value is recorded as 0.1 nM and the EC50 was determined as 1.5 nM. For the same compound, it took 37 nM to reach half-maximal inhibition with saphenous artery rings (Oryctolagus cuniculus) (IC50). In test [2], the “MEC … in the CHO reporter cell” value is given as 0.2 nM.

With `O=C(Nc1cccc(CC2(C(=O)O)CC2)c1)[C@H](c1ccc(CN2N=C(c3ccccc3)OCC2=O)cc1)C1CCCC1` [Example 204, (+)-1-(3-{[(2S)-2-Cyclopentyl-2-{4-[(5-oxo-2-phenyl-5,6-dihydro-4H-1,3,4-oxadiazin-4-yl)-methyl]phenyl}acetyl]amino}benzyl)cyclopropane carboxylic acid], in test [1], the “MEC … at the sGC enzyme” value is 0.5 nM and the EC50 is 18 nM. In the test on saphenous artery rings (Oryctolagus cuniculus), the half-maximal inhibitory concentration (IC50) was 86 nM. In test [2], the “MEC … in the CHO reporter cell” value was found to be 1 nM.

Consider `O=C(Nc1cccc(CC2(C(=O)O)CC2)c1)[C@H](c1ccc(CN2Cc3c(F)cccc3C2=O)cc1)C1CCCC1` [Example 214], for which, in test [1], the “MEC … at the sGC enzyme” value is 0.4 nM and the EC50 stood at 19 nM. The compound further gave an IC50 with saphenous artery rings (Oryctolagus cuniculus) of 11 nM. Further, in test [2], the “MEC … in the CHO reporter cell” value came out at 0.1 nM.

Turning to `O=C(O)CCc1ccc(F)c(NC(=O)[C@H](c2ccc(CN3N=C(c4ccccc4)OCC3=O)cc2)C2CCCC2)c1` [Example 224], in test [1], the “MEC … at the sGC enzyme” value amounted to 1 nM and the EC50 was 20 nM. In the test on saphenous artery rings (Oryctolagus cuniculus), this compound registered an IC50 of 490 nM. For the same compound, the “MEC … in the CHO reporter cell” value in test [2] is 1 nM.
